# In patent publication EP3241555A1, “USE OF PYROPHOSPHATE ION ANALOGUES FOR THE TREATMENT OF HPV INFECTION” (Agencia Pública Empresarial Sanitaria Costa Del Sol, priority 2014, dated 2016):
# pIC50: −log10 of the molar value. Values joined by “and” are separate entries in the source; they are usually repeats but may differ in a detail not shown here. Identical values can stand only once.
# Experiments:
# [1] = target: HIV reverse transcriptase (HIV, RT) (Human immunodeficiency virus type 1 group M subtype B, UniProt P04585); details: read-out: ID50; cited from earlier work
# HPV [2] = details: used topically, master formulation as a cream; different types of viral warts; cited from earlier work
# HPV [3] = assay: Expanded trial in 28 patients with warts treated with topical foscarnet; format: in vivo, human
# Experimental: A total of 28 patients, from which 64.3% are female patients and 35.7% male patients to whom treatment was administered, were studied. The mean age was […] (6-64) and with a median age of 16 years.
# It is important to point out that 96.4% of the patients had received prior treatments without any results, where the most common treatments are cryotherapy involving 78.6% of said patients and topical keratolytic drugs involving 67.9% of them.
# Most of the patients (71.4%) applied the treatment 2 times a day and in 78.6% of the cases, the area of application was banded for the night. The rest of the patients applied the treatment 1 or 3 times/day.
# The mean duration of the treatment was 11.57 (3-28) weeks.
structure (smiles),measurement,setting,value
O=C(O)P(=O)(O)O [Trisodium phosphonoformate],pIC50,[1],~6.00
Nc1ccn(C[C@@H](CO)OCP(=O)(O)O)c(=O)n1 [cidofovir],cure rates,HPV [2],high cure rates
"O=C(O)P(=O)(O)O [foscarnet, phosphonoformic acid]","Adverse effects to treatment: No, Percentage",HPV [3]; 28 patients,89.3%
same,"Adverse effects to treatment: No, Percentage valid",HPV [3]; 28 patients,89.3%
same,"Adverse effects to treatment: Yes, Percentage valid",HPV [3]; 28 patients,10.7%
same,"Response to treatment: Complete, Percentage",HPV [3]; 28 patients,39.3%
same,"Response to treatment: Complete, Percentage valid",HPV [3]; 28 patients,39.3%
same,"Response to treatment: No, Percentage",HPV [3]; 28 patients,28.6%
same,"Response to treatment: No, Percentage valid",HPV [3]; 28 patients,28.6%
same,"Response to treatment: Partial, Percentage",HPV [3]; 28 patients,32.1%
same,"Response to treatment: Partial, Percentage valid",HPV [3]; 28 patients,32.1%
same,percentage of response,"HPV [3]; 28 patients, full plus partial response",71.4%
same,"Adverse effects to treatment: Yes, Percentage","HPV [3]; 28 patients, very mild localized adverse effects (erythema or slight irritation/itch)",10.7%
same,"Time effect starts (weeks), Maximum",HPV [3]; N valid 28,16 weeks
same,"Time effect starts (weeks), Mean",HPV [3]; N valid 28,5.25 (± 4.98) weeks and 5.25 weeks
same,"Time effect starts (weeks), Median",HPV [3]; N valid 28,4.00 weeks
same,"Time effect starts (weeks), Minimum",HPV [3]; N valid 28,0 weeks
same,"Adverse effects to treatment: No, Frequency",HPV [3]; number of patients out of 28,25
same,"Response to treatment: Complete, Frequency",HPV [3]; number of patients out of 28,11
same,"Response to treatment: No, Frequency",HPV [3]; number of patients out of 28,8
same,"Response to treatment: Partial, Frequency",HPV [3]; number of patients out of 28,9
same,"Recurrence: No, Frequency","HPV [3]; number of patients out of 28, 1 lost",27
same,"Adverse effects to treatment: Yes, Frequency","HPV [3]; number of patients out of 28, very mild localized adverse effects (erythema or slight irritation/itch)",3
same,"Recurrence: No, Percentage valid",HPV [3]; of 27 valid patients,100.0%
same,"Recurrence: No, Percentage","HPV [3]; of 28 patients, 1 lost",96.4%
